Laboratory results: ChEMBL document CHEMBL4334516, “Kinase Chemodiversity from the Arctic: The Breitfussins” (J Med Chem, 2019)

Key:
[1] = Toxicity in zebrafish embryos at 0.1 to 1396 uM after 72 hrs; set-up: species or system Danio rerio; conditions: in vivo, read-out: LD50
[2] = target: cGMP-specific 3',5'-cyclic phosphodiesterase (Homo sapiens, UniProt O76074); experiment: Inhibition of human recombinant phosphodiesterase type 5 using [3H]cGMP and cGMP incubated for 60 mins by scintillation counting method; conditions: 1 h
[3] = Solubility in assay media (PTU-E3 water); format: physicochemical; conditions: buffer
[4] = Toxicity in zebrafish embryos assessed as survival at 1396 uM after 72 hrs (reference value: 95%); set-up: species or system Danio rerio; conditions: in vivo
[5] = target: T1, Mitogen-activated protein kinase kinase kinase kinase 2 (Homo sapiens) (UniProt Q12851); experiment: Binding affinity to wild-type human partial length GCK (M1 to G318 residues) expressed in mammalian expression system assessed as residual binding level at 10 uM by active-site directed competition binding assay based Kinomescan method relative to control
T1 sequence (whole entry): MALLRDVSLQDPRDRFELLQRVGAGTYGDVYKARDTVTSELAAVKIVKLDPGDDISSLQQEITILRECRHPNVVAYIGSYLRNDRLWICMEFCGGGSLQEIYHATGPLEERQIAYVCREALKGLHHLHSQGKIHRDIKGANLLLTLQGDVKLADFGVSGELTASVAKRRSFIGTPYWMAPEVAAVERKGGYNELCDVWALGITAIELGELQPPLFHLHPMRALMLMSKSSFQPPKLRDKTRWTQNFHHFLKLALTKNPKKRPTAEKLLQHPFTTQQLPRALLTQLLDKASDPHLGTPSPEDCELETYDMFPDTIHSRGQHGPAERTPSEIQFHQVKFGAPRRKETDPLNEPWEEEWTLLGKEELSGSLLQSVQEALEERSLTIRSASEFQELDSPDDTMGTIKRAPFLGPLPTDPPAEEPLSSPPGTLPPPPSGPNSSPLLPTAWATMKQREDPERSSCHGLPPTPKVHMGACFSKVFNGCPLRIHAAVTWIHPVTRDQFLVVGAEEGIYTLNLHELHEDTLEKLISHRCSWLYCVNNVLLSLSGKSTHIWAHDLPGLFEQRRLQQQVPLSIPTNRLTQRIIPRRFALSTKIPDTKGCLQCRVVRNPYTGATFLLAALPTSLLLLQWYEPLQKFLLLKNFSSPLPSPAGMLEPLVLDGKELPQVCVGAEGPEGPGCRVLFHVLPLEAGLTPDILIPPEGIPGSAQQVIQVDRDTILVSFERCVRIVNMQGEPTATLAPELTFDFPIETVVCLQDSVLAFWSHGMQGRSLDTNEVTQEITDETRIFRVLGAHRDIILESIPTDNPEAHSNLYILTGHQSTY

[6] = target: NUAK family SNF1-like kinase 1 (Homo sapiens) (UniProt O60285); experiment: Inhibition of NUAK1 (unknown origin) by assessed as residual enzyme activity at 1 uM by [33P]-ATP filter binding kinase assay relative to control
[7] = test system: SK-BR-3; experiment: Cytotoxicity in human SK-BR-3 cells assessed as reduction in cell viability incubated for 72 hrs by SRB assay; conditions: SK-BR-3, 72 h
[8] = target: T2, Receptor-interacting serine/threonine-protein kinase 2 (Homo sapiens, UniProt O43353); experiment: Binding affinity to wild-type human partial length RIPK2 (M1 to K310 residues) expressed in bacterial expression system assessed as residual binding level at 10 uM by active-site directed competition binding assay based Kinomescan method relative to control
[9] = Toxicity in zebrafish embryos assessed as induction of tail degeneration by measuring unaffected embryos level at 1.4 uM after 72 hrs (reference value: 100%); format: tissue-based, Danio rerio; conditions: in vivo
[10] = target: T2, Receptor-interacting serine/threonine-protein kinase 2; experiment: Inhibition of RIPK2 (unknown origin) assessed as residual enzyme activity at 1 uM by [33P]-ATP filter binding kinase assay relative to control
[11] = Toxicity in zebrafish embryos assessed as induction of heart edema by measuring unaffected embryos level at 0.1 uM after 72 hrs (reference value: 100%); format: tissue-based, Danio rerio; conditions: in vivo
[12] = Toxicity in zebrafish embryos assessed as induction of necrosis by measuring unaffected embryos level at 1.4 uM after 72 hrs (reference value: 100%); set-up: species or system Danio rerio; conditions: in vivo
[13] = target: T1, Mitogen-activated protein kinase kinase kinase kinase 2 (Homo sapiens); experiment: Inhibition of GCK (unknown origin) assessed as residual enzyme activity at 50 uM by [33P]-ATP filter binding kinase assay relative to control
[14] = Intrinsic clearance in mouse liver microsomes at 3 uM measured up to 50 mins by LC-MS analysis; format: ADME, Microsome; conditions: read-out: CLH
[15] = Toxicity in zebrafish embryos assessed as induction of general edema by measuring unaffected embryos level at 14 uM after 72 hrs (reference value: 100%); set-up: species or system Danio rerio; conditions: in vivo
[16] = target: Tyrosine-protein kinase JAK1 (Homo sapiens, UniProt P23458); experiment: Binding affinity to wild-type human partial length JAK1 JH2 domain-pseudokinase expressed in bacterial expression system by active-site directed competition binding assay based Kinomescan method
[17] = Permeability assessed as drug flux at 500 uM incubated for 20 hrs by PAMPA; format: ADME
[18] = target: Citron Rho-interacting kinase (Homo sapiens, UniProt O14578); experiment: Binding affinity to wild-type human partial length CIT (M68 to E432 residues) expressed in bacterial expression system by active-site directed competition binding assay based Kinomescan method
[19] = Toxicity in zebrafish embryos assessed as survival at 140 uM after 72 hrs (reference value: 95%); set-up: species or system Danio rerio; conditions: in vivo
[20] = Unbound fraction in human plasma at 5 uM incubated for 6 hrs at 37 degC by LC-MS analysis based equilibrium dialysis; format: ADME, cell-free
[21] = target: Serine/threonine-protein kinase SIK3 (Homo sapiens, UniProt Q9Y2K2); experiment: Binding affinity to wild-type human partial length SIK3 (A90 to L395 residues) expressed in mammalian expression system assessed as residual binding level at 10 uM by active-site directed competition binding assay based Kinomescan method relative to control
[22] = Stability in human plasma assessed as parent compound remaining level at 5 uM incubated for 1 hr by LC-MS analysis; format: ADME, cell-free; conditions: read-out: Stability
[23] = test system: PLC-PRF-5; experiment: Cytotoxicity in human PLC/PRF/5 cells assessed as reduction in cell viability incubated for 72 hrs by SRB assay; conditions: PLC-PRF-5, 72 h
[24] = Toxicity in zebrafish embryos assessed as induction of heart edema by measuring unaffected embryos level at 14 uM after 72 hrs (reference value: 100%); format: tissue-based, Danio rerio; conditions: in vivo
[25] = target: Serine/threonine-protein kinase 17B (Homo sapiens) (UniProt O94768); experiment: Binding affinity to wild-type human full length DRAK2 (M1 to C372 residues) expressed in bacterial expression system assessed as residual binding level at 10 uM by active-site directed competition binding assay based Kinomescan method relative to control
[26] = test system: MCF7; experiment: Cytotoxicity in human MCF7 cells assessed as reduction in cell viability by MTS assay; format: functional, cell-based; conditions: TDE = time-dependent effect
[27] = target: AMP-activated protein kinase, AMPK (Homo sapiens) (UniProt P54646+O43741+P54619+Q9UGJ0+Q9Y478+Q13131+Q9UGI9); experiment: Inhibition of AMPK (unknown origin) assessed as residual enzyme activity at 50 uM by [33P]-ATP filter binding kinase assay relative to control; format: protein-complex assay

T2 sequence (O43353 whole entry, the tested form may be a part): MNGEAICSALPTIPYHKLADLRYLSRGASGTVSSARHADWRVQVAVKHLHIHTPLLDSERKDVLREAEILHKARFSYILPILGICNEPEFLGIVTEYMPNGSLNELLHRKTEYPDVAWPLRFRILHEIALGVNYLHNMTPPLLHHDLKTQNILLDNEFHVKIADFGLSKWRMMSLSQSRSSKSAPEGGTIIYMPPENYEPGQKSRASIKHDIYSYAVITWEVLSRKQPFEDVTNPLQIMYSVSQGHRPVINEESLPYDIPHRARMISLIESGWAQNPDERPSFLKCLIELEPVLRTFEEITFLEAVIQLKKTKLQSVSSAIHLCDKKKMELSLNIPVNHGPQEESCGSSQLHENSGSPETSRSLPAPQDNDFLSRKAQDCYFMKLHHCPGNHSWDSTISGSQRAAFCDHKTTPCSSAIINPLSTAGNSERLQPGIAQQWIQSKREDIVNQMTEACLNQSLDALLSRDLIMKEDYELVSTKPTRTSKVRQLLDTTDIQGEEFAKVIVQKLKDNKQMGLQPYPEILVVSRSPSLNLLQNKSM
Citron Rho-interacting kinase, sequence (O14578 whole entry, the tested form may be a part): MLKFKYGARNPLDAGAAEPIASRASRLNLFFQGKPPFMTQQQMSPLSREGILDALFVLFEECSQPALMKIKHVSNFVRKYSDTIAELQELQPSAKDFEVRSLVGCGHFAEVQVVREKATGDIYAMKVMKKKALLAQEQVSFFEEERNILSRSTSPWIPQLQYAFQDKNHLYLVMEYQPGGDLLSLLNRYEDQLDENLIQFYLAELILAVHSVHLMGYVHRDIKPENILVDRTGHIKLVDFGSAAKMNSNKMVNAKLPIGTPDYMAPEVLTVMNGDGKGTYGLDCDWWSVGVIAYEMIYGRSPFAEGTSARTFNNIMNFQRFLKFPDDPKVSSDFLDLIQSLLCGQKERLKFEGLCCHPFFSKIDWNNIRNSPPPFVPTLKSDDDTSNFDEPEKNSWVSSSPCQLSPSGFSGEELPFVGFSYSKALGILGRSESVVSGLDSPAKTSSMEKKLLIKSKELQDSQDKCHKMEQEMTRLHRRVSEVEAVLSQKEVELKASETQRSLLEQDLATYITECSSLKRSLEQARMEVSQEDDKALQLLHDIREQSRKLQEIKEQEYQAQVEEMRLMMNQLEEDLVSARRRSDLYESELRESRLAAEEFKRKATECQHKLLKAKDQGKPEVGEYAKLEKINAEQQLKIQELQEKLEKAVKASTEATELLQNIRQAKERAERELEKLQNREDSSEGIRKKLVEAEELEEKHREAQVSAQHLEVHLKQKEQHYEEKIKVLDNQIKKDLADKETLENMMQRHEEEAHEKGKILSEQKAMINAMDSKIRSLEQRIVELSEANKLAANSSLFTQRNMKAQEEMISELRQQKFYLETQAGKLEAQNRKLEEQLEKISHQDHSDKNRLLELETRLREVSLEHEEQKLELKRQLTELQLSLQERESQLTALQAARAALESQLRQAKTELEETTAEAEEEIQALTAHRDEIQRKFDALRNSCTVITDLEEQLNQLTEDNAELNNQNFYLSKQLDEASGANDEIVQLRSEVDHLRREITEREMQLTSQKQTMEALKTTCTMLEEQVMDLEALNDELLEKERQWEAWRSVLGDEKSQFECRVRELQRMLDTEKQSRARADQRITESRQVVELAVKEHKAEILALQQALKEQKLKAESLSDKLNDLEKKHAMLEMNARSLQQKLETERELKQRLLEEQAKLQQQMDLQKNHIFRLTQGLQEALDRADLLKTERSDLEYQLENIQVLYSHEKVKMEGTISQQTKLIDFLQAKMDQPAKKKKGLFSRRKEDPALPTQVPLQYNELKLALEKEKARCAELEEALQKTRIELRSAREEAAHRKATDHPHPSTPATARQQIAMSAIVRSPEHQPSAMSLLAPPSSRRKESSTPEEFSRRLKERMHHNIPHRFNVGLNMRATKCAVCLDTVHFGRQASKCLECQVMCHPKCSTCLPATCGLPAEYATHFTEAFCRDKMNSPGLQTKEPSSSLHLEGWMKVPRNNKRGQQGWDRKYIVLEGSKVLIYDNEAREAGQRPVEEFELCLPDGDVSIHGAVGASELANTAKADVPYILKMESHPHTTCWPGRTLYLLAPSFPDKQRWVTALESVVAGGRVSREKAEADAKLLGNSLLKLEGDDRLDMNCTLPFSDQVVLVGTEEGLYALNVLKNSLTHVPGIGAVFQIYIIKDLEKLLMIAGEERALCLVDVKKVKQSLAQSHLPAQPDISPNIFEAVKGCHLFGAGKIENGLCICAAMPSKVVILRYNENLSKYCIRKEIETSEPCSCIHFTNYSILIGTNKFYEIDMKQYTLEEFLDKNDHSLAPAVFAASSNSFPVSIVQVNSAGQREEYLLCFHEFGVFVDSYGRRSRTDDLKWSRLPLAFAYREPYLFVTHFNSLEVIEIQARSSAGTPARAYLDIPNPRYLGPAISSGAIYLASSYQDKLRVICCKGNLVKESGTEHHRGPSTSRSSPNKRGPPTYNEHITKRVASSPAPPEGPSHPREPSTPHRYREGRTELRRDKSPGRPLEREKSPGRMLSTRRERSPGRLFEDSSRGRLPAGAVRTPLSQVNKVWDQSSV
NUAK family SNF1-like kinase 1 (Homo sapiens), sequence (O60285 whole entry): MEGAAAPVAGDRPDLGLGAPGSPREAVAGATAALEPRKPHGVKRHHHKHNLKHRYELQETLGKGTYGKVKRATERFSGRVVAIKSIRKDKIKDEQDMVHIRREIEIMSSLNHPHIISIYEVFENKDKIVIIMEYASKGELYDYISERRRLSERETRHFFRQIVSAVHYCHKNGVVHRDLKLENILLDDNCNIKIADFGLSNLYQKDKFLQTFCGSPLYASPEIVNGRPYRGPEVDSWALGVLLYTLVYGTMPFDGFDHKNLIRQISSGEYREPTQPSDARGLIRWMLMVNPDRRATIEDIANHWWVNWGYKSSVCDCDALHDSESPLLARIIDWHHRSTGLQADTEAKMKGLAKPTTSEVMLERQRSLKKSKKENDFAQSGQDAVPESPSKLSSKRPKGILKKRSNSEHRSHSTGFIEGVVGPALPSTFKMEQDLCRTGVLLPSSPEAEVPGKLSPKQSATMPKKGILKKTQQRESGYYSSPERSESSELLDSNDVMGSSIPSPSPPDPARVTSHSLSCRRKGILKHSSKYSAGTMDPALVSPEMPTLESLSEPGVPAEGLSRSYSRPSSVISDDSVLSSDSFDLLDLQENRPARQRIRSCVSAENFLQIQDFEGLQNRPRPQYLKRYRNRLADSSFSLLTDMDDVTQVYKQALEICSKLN
Tyrosine-protein kinase JAK1, sequence (P23458 whole entry, the tested form may be a part): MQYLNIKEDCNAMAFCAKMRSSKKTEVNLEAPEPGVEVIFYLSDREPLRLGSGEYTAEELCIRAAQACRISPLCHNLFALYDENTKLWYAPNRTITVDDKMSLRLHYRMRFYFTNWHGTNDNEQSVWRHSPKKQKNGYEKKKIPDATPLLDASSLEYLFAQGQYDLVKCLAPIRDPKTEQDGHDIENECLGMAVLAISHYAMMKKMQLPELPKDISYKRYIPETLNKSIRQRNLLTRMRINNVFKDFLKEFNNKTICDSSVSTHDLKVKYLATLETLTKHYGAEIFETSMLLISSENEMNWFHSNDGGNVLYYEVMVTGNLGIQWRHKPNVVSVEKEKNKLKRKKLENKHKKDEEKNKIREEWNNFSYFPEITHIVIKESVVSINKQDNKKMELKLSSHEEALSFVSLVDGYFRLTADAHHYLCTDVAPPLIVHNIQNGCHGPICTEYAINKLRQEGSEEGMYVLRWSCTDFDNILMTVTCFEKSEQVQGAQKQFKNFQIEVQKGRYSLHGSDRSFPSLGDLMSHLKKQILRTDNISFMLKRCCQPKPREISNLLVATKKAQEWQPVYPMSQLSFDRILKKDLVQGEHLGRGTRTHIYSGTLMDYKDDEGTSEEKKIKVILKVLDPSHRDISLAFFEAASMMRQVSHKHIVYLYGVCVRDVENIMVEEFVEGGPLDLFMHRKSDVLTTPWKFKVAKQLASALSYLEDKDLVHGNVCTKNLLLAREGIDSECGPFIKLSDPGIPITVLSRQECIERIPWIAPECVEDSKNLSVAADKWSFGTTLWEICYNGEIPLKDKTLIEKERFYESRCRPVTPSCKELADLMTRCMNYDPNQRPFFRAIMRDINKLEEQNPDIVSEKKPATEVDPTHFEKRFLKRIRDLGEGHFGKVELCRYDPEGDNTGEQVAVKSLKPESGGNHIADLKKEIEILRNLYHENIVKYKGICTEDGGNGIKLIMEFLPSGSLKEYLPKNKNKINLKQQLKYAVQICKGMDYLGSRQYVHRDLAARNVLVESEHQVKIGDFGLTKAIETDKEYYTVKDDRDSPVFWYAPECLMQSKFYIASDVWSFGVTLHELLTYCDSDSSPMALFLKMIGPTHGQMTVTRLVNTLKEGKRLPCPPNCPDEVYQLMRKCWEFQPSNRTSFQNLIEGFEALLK
Serine/threonine-protein kinase 17B (Homo sapiens), sequence (O94768 whole entry, the tested form may be a part): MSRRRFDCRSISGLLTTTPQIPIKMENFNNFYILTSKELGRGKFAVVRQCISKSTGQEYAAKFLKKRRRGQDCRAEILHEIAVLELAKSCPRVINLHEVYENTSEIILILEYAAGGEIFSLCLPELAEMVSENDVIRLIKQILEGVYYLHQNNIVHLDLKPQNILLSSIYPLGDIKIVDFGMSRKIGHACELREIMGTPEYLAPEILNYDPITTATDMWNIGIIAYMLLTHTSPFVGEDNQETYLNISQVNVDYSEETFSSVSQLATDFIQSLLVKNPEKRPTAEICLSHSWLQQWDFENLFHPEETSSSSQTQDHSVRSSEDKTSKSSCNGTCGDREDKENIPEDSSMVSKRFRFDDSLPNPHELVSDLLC

For `COc1cc2c(-c3cnc(-c4ccc[nH]4)o3)c[nH]c2cc1Br`, the LC50 at 72 h [1] was 1400 nM, the “inhibition (INH)” value [2] was “Active” and the solubility [3] was “Insoluble”. The survival at 72 h, 1396 µM [4] was 0%, the Activity [5] was 72% and the Activity [6] was 46%. It also gave an IC50 [7] of 1500 nM, an Activity [8] of 57% and an Activity [9] of 100%. For the same molecule, the Activity [10] was 41%, the Activity [11] was 95% and the Activity [12] was 0%. The Activity [13] was 7%, the microsomal CLint at 3 µM [14] was 47 µL/min/mg and the Activity [15] was 100%. For the same molecule, the Kd [16] was 1000 nM, the permeability [17] was 23% and the Kd [18] was 2700 nM. It also gave a survival at 72 h, 140 µM [19] of 0%, a Fu [20] of 0.3% and an Activity [21] of 94%. For the same molecule, the remaining at 1 h, 5 µM [22] was 83%, the IC50 [23] was 1500 nM and the Activity [24] was 100%. For the same molecule, the Activity [25] was 1.2%.
In the case of `COc1cc(Br)cc2[nH]cc(-c3cnc(-c4ccc[nH]4)o3)c12`, the Activity [26] is reported as “Tde”.
With `COc1cc(Br)cc2[nH]cc(-c3oc(-c4ccc[nH]4)nc3I)c12` the Activity [27] was 28%.
